Source: paper PMC10793102 (Acta Pharmaceutica Sinica. B, 2023)
Like-named read-outs stand apart in the source and are kept apart here.

Key:
[1] = tested on: FADD−/− Jurkat; test: Cell viability assay, protection from necroptosis in FADD−/− Jurkat cells; format: cell-based; settings: Homo sapiens, 16 h
[2] = tested on: L929; test: Cell viability assay, protection from necroptosis in L929 cells; format: cell-based, mouse; settings: for EC50: Mus musculus, L929, 16 h; for protective effects against cell death of L929 cells induced by TNFα: TNFα 40 ng/mL, 15 h, Fig. 2A
[3] = tested on: phosphorylation of RIPK1, RIPK3 and MLKL; test: Western blotting of necroptosis pathway in stimulated HT-29 cells; format: cell-based, human; settings: compounds at 5 μmol/L, 4 h
[4] = read-out: EC50 FADD−/− Jurkat T + S
[5] = read-out: EC50 FADD−/− Jurkat TNFα

Row | SMILES | EC50 [1, 4] [nM] | EC50 [1, 5] [nM] | EC50 ([2]; read-out: EC50 L929 T + S) [nM] | EC50 ([2]; read-out: EC50 L929 TNFα) [nM] | phosphorylation of RIPK1 (Western blot) [3] | phosphorylation of RIPK3 and MLKL (Western blot) [3] | protective effects against cell death of L929 cells induced by TNFα [2]
1 | Nc1ncnc2c1ncn2-c1ccc(CNC(=O)c2ccc(Cl)n2Cc2ccccc2)cc1 [compound 52] | 80.6 | 6.6 |  |  |  |  | 
2 | CNC(=O)c1ccc2c(c1)ncn2-c1ccc(CC(=O)N(O)Cc2ccccc2)cc1 [compound 14] | > 10000 | 3800 | 98 | 50 |  |  | 
3 | CCN1CCN(Cc2ccc(NC(=O)Nc3ccc(-n4cnc5cc(C(=O)NC)ccc54)cc3)cc2C(F)(F)F)CC1 [compound 12] |  |  |  |  | diminished the phosphorylation of the upstream effector RIPK1 | comparably diminished the phosphorylation of RIPK3 and the downstream MLKL | protective effects similar to 10
4 | CNC(=O)c1ccc2c(c1)ncn2-c1ccc(CNC(=O)c2ncc(Cc3ccccc3)o2)cc1 [compound 18] | 380 | 70 | 3980 | 831 |  |  | 
5 | CNC(=O)c1ccc2c(c1)ncn2-c1ccc(CNC(=O)c2noc(Cc3ccccc3)n2)cc1 [compound 16] | 176 | 24 |  | 962 |  |  | 
6 | CNC(=O)c1ccc2c(cnn2-c2ccc(CNC(=O)c3cc(Cc4ccccc4)n(C)n3)cc2)c1 [compound 29] | > 10000 | > 10000 | > 10000 | > 10000 |  |  | 
7 | CNC(=O)c1ccc2c(c1)ncn2-c1ccc(CNC(=O)c2nnc(Cc3ccccc3)o2)cc1 [compound 17] | 1520 | 185 |  |  |  |  | 
8 | Nc1ncnc2c1ncn2-c1ccc(CN2CCc3cn(Cc4ccccc4)nc3C2=O)cc1 [compound 61] | 0.4 | 0.3 |  |  |  |  | 
9 | C[C@@H](NC(=O)c1cnn(C)c1Cc1ccccc1)c1ccc(-n2cnc3c(N)ncnc32)cc1 [compound 55] | 132 | 36 | 219 | 52 |  |  | 
10 | CCn1nc(C(=O)NCc2ccc(-n3cnc4cc(C(=O)NC)ccc43)cc2)cc1Cc1ccccc1 [compound 22] | 43 | 5.9 |  |  |  |  | 
11 | COc1ccc2c(cnn2-c2ccc(CNC(=O)c3cnn(C)c3Cc3ccccc3)cc2)c1 [compound 36] | 128 | 18 |  |  |  |  | 
12 | CNC(=O)c1ccc2c(c1)ncn2-c1ccc(CNC(=O)c2nocc2Cc2ccccc2)cc1 [compound 19] | 113 | 8.1 | 3350 | 2140 |  |  | 
13 | Cn1ncc(C(=O)NCc2ccc(-c3ncnc4[nH]ccc34)cc2)c1Cc1ccccc1 [compound 38] | 747 | 152 | > 10000 | > 10000 |  |  | 
14 | Cn1nc2c(c1Cc1ccccc1)C(=O)N(Cc1ccc(-n3cnc4c(N)ncnc43)cc1)CC2 [compound 59] | 2.3 | 0.2 | 39 | 8.4 |  |  | 
15 | CCN1CCN(Cc2ccc(NC(=O)Cc3ccc(-n4cnc5cc(C(=O)NC)ccc54)cc3)cc2C(F)(F)F)CC1 [compound 11] | > 10000 | > 10000 | 713 | 190 | diminished the phosphorylation of the upstream effector RIPK1 | comparably diminished the phosphorylation of RIPK3 and the downstream MLKL | protective effects similar to 10
16 | COc1cc2ncnc(-c3ccc(CNC(=O)c4cnn(C)c4Cc4ccccc4)cc3)c2cc1OC [compound 37] | 1500 | 233 |  |  |  |  | 
17 | Cn1nc(C(=O)NCc2ccc(-n3ccc4c(N)nccc43)cc2)cc1Cc1ccccc1 [compound 46] | > 10000 | 361 |  |  |  |  | 
18 | CNC(=O)c1ccc2c(c1)ncn2-c1ccc(CNC(=O)c2ccc(F)n2Cc2ccccc2)cc1 [compound 26] | 17 | 1.7 | 34 | 6 |  |  | 
19 | CCn1ncc(C(=O)NCc2ccc(-n3cnc4c(N)ncnc43)cc2)c1Cc1ccccc1 [compound 47] | 35 | 1.2 | 74 | 22 |  |  | 
20 | CN(C)CCNC(=O)c1ccc2c(c1)ncn2-c1ccc(CNC(=O)c2cnn(C)c2Cc2ccccc2)cc1 [compound 30] | 368 | 53 | > 10000 | > 10000 |  |  | 
21 | CCCn1nc(C(=O)NCc2ccc(-n3cnc4cc(C(=O)NC)ccc43)cc2)cc1Cc1ccccc1 [compound 23] | 738 | 109 |  |  |  |  | 
